Results taken from US20100093076A1, “SOLUBLE IL-27 RECEPTOR” (priority 2006, published 2010).

Columns and labels:
total human PBMCs = assay: IL-27 EC90 determination, phosphorylated STAT3 in total human PBMCs; assay type: cell-based; conditions: read-out: EC90 concentration
Text: (§1) Whole mouse spleens were harvested from C57 B1/6 mice and washed two times with 1×PBS before being plated out at 2×10^5 cells/well in assay media (RPMI 1640 plus 10% fetal bovine serum) in 96-well, round-bottom tissue culture plates. Total human PBMC (peripheral blood mononuclear cells) were thawed from a frozen vial collected from a leukapherisis donation and washed two times with 1×PBS before being plated out at 10^6 cells/well in assay media in 96-well, round-bottom tissue culture plates. […] Following pre-incubation, treatments were added to the plates containing the cells and incubated together at 37° C. for 15 minutes.
(§2) Following incubation, cells were washed with ice-cold wash buffer (BIO-PLEX Cell Lysis Kit, BIO-RAD Laboratories, Hercules, Calif.) and put on ice to stop the reaction according to manufacturer's instructions. […]
(§3) Capture beads (BIO-PLEX Phospho-Stat3 Assay, BIO-RAD Laboratories) were combined with 50 μL of 1:1 diluted lysates and added to a 96-well filter plate according to manufacture's instructions (BIO-PLEX Phosphoprotein Detection Kit, BIO-RAD Laboratories). […] After the final wash, beads were resuspended in 125 μL/well of bead suspension buffer, shaken for 30 seconds, and read on an array reader (BIO-PLEX, BIO-RAD Laboratories) according to the manufacture's instructions. Data were analyzed using analytical software (BIO-PLEX MANAGER 3.0, BIO-RAD Laboratories). […]

mouse spleens = assay: IL-27 EC90 determination, phosphorylated STAT3 in mouse spleens; assay type: cell-based; conditions: read-out: EC90 concentration
Text: as §1, §2, §3

huIL-27: Human IL-27 (R&D Systems)
EC90 (total human PBMCs): 2 nM | EC90 (mouse spleens): 2 nM
